Tests used:
[1] = target: IKKα; experiment: IKKα immunocomplex kinase assay; format: cell-based, human; conditions: for kinase activity of IKKα: substrate GST-IκBα (1-54), after 30 and 60 minutes
Experimental: For immunoprecipitation 2 μg of anti-IKKα and anti-IKKβ were added to the whole cell lysate for 2 hours on ice. 30 μl of protein A-G sepharose beads were added and incubated at […] for 90 minutes. Beads were washed 3 times in wash buffer, and the beads were boiled with 2xSDS sample buffer. Kinase activity was performed using GST-IκBα as substrate (Hu et al., Science, 284, 316-20 (1999)).

[2] = system: epidermal equivalents; experiment: Living epidermal equivalent model system; format: cell-based, human; conditions: for terminal differentiation and cornification: continuously submerged cultures, 4 days later
Experimental: Reconstituted epidermis, known as epidermal equivalents were purchased from MatTek Corp., Ashland, Mass.
(§1) Portions of the epidermal equivalents were fixed in 10% neutral buffered formalin, embedded in paraffin and routinely stained with 1% hematoxylin and eosin. […] When using Lab Tek cultures, these slides were rinsed in PBS and fixed with ice-chilled acetone for 10 mins prior to addition of primary antibodies. Cryostat sections of skin also were fixed using ice-cold acetone. In all cases, a highly sensitive avidin biotin peroxidase procedure (Vectastain Kit, Vector Labs, Burlingame, Calif.) was used with a positive red reaction product obtained using […] as the chromagen.
For these experiments a living epidermal equivalent model system was used, because it provided an opportunity to examine the individual components of the Notch pathway (i.e. Notch ligand and receptors) before, and after, induction of differentiation for keratinocytes maintained in a multi-layered or stratified configuration that closely resembles normal human skin. Epidermal equivalents consist of keratinocytes grown to produce a multi-layered structure that are initially prepared using submerged keratinocytes. Following this initial preparation, the cultures are exposed to an air-liquid interface in a moistened chamber for three days that can initiate the early stage of differentiation, designated as day 0. Under these conditions, approximately 5-7 layers are produced with a progressive flattening of the top level keratinocytes, which can include occasional cells with keratohyalin granules, and focal appearance of loricrin positive cells and corneocytes. When cultures arrived at day 0, they can either be re-submerged in medium or lifted-up and maintained on a support to create an air-liquid interface within a tissue culture well. After lifting of the cultures, the multi-layered keratinocytes are exposed to the air, with the subjacent membrane being moistened and fed only from the underlying medium within the well. Lifting the cultures at day 0, triggers the terminal differentiation process, which typically is completed within about 5 to about 7 days.

[3] = system: NF-κB; experiment: NF-κB luciferase assay in transfected keratinocytes; format: cell-based, human
Experimental: (§2) Keratinocyte cultures were initiated from discarded neonatal foreskins, in which epidermis was separated from dermis using dispase (Mukherjee et al, Chemical and Structural Approaches to Rational Drug Design (Weiner et al., eds.) CRC Press, pp. 237-61 (Boca Raton, 1994). Keratinocytes were induced to proliferating using a low calcium (0.07 mM), serum-free medium (KGM, Clonetics Corp., San Diego, Calif.). Keratinocytes were grown in 10 cm plastic petri dishes, and passaged at 60-70% confluency, and maintained in a humidified incubator at 37° C. with 5% CO2. Keratinocytes were also grown in 8-well Lab Tek Chambers as previously described (Mukherjee et al., supra). Keratinocytes were used between 2 and 4 passages. In some experiments, keratinocytes were pre-treated with KGM containing an elevated calcium ion concentration (i.e. 2 mM) for 24 hrs prior to addition of JAG-1 peptide, or other stimuli as indicated.
To perform the luciferase-based NF-κB assays, normal keratinocytes were seeded in 6-well plates as previously described (Qin et al., supra). At approximately 50% to 60% confluence, the cells were co-transfected with 0.8 μg of pNF-κB-LUC vector (CLONTECH Laboratories, Palo Alto, Calif.) containing a firefly luciferase gene with K enhancer and 0.2 μg of PRL-TK plasmid DNA which contains Renella Luciferase gene to normalize the transfection efficiency. The same amount of control vector in which the κ enhancer was removed from pNF-κB-LUC was also used to co-transfect the cells.
DNA was transfected into keratinocytes using Fu-Gene 6 Transfection Reagent (Roche Molecular Biochemicals) according to the manufacturer's protocol. After 36 hours of transfection, cells were treated with either TNF-α (10^3 U/ml; R&D Systems, Minneapolis, Minn.) or the indicated peptides.
The preparation of cell lysate and luciferase activity measurements were made with DUAL LUCIFERASE™ Reporter Assay System (Promega, Madison Wis.) according to the manufacturer's instructions. The sample was placed in a TD-20/20 luminometer (CLONTECH Laboratories) for detection of light intensity.

[4] = system: Notch-1; experiment: Western blotting for Notch-1 in MOM-2b cells; format: cell-based; conditions: 100 nM
Experimental: Two cultures of MOM-2b cells (an aggressive melanoma cell line) were cultured in standard medium alone or in the presence of 100 nM of a gamma secretase inhibitor, which interferes with Notch signaling (Supont Compound E; Seiffaert et al., J. Biol. Chem., 275, 34086 (2000)). The cells then were lysed and assayed for the presence of Notch-1 by Western blotting.

[5] = system: MOM-2b cells; experiment: Invasion through MATRIOEL coated filters; format: cell-based; conditions: MOM-2b cells pretreated overnight with 100 nM
Experimental: In a second experiment, MOM-2b cells were pretreated overnight with 100 nM compound E or untreated culture medium and then analyzed for invasive behavior by culturing them on MATRIOEL™ coated filters, into which aggressive melanoma will invade. After 20 hours, cells that have not invaded through the filters were discarded and cells that had migrated into the top of the filters were stained, lysed, and then assayed for absorbance at 350 nm to quantitate the number of cells that had invaded through the filter.

[6] = Cytotoxicity; format: cell-based; conditions: concentrations <300 nM
[7] = system: p50 and p65 subunits; experiment: Western blot of keratinocyte nuclei for NF-κB subunits; format: cell-based, human; conditions: keratinocytes in 2 mM calcium; 30 minutes and 1 hour after addition
Experimental: (§3) Whole cell lysates, or nuclear and cytoplasmic extracts, were prepared to detect different proteins as previously described (Chaturvedi et al., J. Biol. Chem., 274, 2358-67 (1999)). Briefly, keratinocytes were washed with ice cold phosphate buffered saline (PBS), and harvested by scraping the monolayers into 1 ml PBS, and pelleted in a […] microcentrifuge tube. The cell pellet was suspended in 400 μl of buffer A (10 mM HEPES, 10 mM KCl, 1 mM EDTA, 1 mM EGTA, 1 mM dithiothreitol, 0.5 mM phenylmethlysulfonyl fluoride, and 5 μg/ml leupeptin). After 20 min incubation on ice, 25 μl of 10% Nonidet P-40 was added and then centrifuged briefly. The supernatant represented the cytoplasmic extracts. The nuclear pellet was resuspended in 60-80 μl of buffer C (20 mM HEPES, 0.4 M NaCl, 1 mM EDTA, 1 mM EGTA, 1 mM dithiothreitol, 0.5 mM phenylmethylsulfonyl fluoride, and 5 μg/ml leupeptin) and incubated at 4° C. with shaking for 15 min. The nuclear debris was removed by centrifugation at 4° C.
(§4) For the whole cell lysate, cells were washed with cold PBS and incubated in CHAPS buffer on ice for 15 min. After centrifugation at 4° C., the supernatants were saved as whole cell lysate. The protein concentration of each sample was determined with Bio-Rad protein assay reagent. […]

[8] = system: NF-κB; experiment: Electromobility shift assay (EMSA) of keratinocyte nuclear extracts; format: cell-based, human; conditions: heterodimers p50 and p65 and p50/p50 homodimers
Experimental: EMSA were done as described previously (Qin et al., supra). 5 μg of nuclear proteins were incubated on ice with 1 μg of poly(dI-dC) (Amersham Pharmacia Biotech) in a buffer containing 10 mM HEPES, 60 mM KCl, 1 mM dithiothreitol, 1 mM EDTA, and 4% Ficoll for 10 min. The ^32P-labeled double strand NF-κB binding oligonucleotide (10^5 cpm) was then added to the reaction mixture for an additional 20 min on ice. The NF-κB oligonucleotide had the following sequence: SEQ ID NO:14 (5′-[…]-3′). For experiments involving supershift analysis, 2-4 μg of polyclonal antibodies against different subunits of NF-κB (Santa Cruz Biotech) were incubated with nuclear proteins for 30 min on ice prior to addition of ^32P-labeled NF-κB probe. All the reaction mixtures were resolved on 4% polyacrylamide gels.

[9] = system: IκBα; experiment: Western blot of keratinocyte cytoplasmic extracts for IκB proteins; format: cell-based, human
Experimental: as §3
For the whole cell lysate, cells were washed with cold PBS and incubated in CHAPS buffer on ice for 15 min. After centrifugation at 4° C., the supernatants were saved as whole cell lysate. The protein concentration of each sample was determined with Bio-Rad protein assay reagent. 30 μg of protein were loaded on 8-12.5% SDS-polyacrylamide gel, transferred to Immobilon-P (polyvinylidene difluoride) membrane and blocked in 5% powdered milk in TBST (50 mM Tris, pH 7.5, 150 mM NaCl, 0.01% Tween 20). The membrane was incubated with primary antibody overnight at 4° C. in 2.5% powdered milk in TBST and then was washed extensively with TBST, and incubated with 1:1500 anti-rabbit or mouse-HRP (Amersham Pharmacia Biotech). Proteins were visualized with the ECL detection kit (Amersham Pharmacia Biotech). The equivalent loading of proteins in each well was confirmed by Ponceau staining.

[10] = system: Notch 1; experiment: Western blot for Notch 1 in keratinocytes; format: cell-based, human; conditions: 6 hours and 24 hours after addition
Experimental: as §3, §4

[11] = system: Jagged-1 and Notch receptors; experiment: Immunostaining of cultured keratinocyte monolayers for Jagged-1 and Notch receptors; format: cell-based, human
Experimental: as §2, §1

[12] = system: keratinocytes; experiment: Terminal differentiation of cultured keratinocyte monolayers; format: cell-based, human; conditions: for loricrin and involucrin immunostaining: 2 mM calcium keratinocyte cultures; for stratification of keratinocyte monolayer: 2 mM calcium, as early as 3 days following addition
Experimental: as §2, §1

[13] = system: PKC-alpha; experiment: PKC-alpha localization in keratinocytes; format: cell-based, human
Experimental: as §1

[14] = re-submerged day 0 cultures, observed on day 5

## SC-JAG: scrambled control peptide without agonist activity (SEQ ID NO:13) (RCGPDCFDNYGRYKYCF; Scrambled JAG peptide) [reference compound]
[1]
  kinase activity of IKKα: little effect
[2]; 40 μM added on day 0
  terminal differentiation and cornification: not

## TNF-α [reference compound]
[3]; high calcium (2 mM) medium
  NF-κB activation (luciferase): positive control for NF-κB activation
[3]; low calcium (0.07 mM) medium
  NF-κB activation (luciferase): positive control for NF-κB activation
[1]
  kinase activity of IKKα: little effect

## C[C@H](NC(=O)Cc1cc(F)cc(F)c1)C(=O)N[C@H]1N=C(c2ccccc2)c2ccccc2N(C)C1=O [compound E]
[4]
  activation of Notch-1: completely blocked
[5]; after 20 hours
  OD350 (cells invaded through the filter): 0.378
[5]; versus control culture
  inhibition of aggressive behavior in melanoma cells: 75%
[6]
  cytotoxicity: did not exhibit cytotoxicity

## JAG-1: synthetic peptide with Notch agonist activity corresponding to Jagged-1 residues 188-204 (SEQ ID NO:11), part of the DSL region (CDDYYYGFGCNKFCRPR; JAG-1 Notch ligand)
[3]; high calcium (2 mM) medium
  NF-κB activation (luciferase): did trigger NF-κB activation
[3]; low calcium (0.07 mM) medium
  NF-κB activation (luciferase): not low calcium conditions
[7]
  intranuclear levels of p50 and p65 subunits: markedly enhanced intranuclear levels
[8]
  NF-κB transcriptional activity (binding to NF-κB probe): can activate NF-κB transcriptional activity
[9]; 7-minute to 6-hour time points
  relatively low constitutive level of IκBα: slightly reduced
[9]; after 24 hours
  cytoplasmic IκBα level (most prominent inhibitory protein): no consistent decline
  relatively low constitutive level of IκBα: became undetectable
[10]
  Notch 1 levels: decreased to barely detectable levels
[11]; 24 hours after stimulation
  Notch-1 cellular localization: re-distributed to the cytoplasm
[11]; after addition of peptide
  Notch 3 immunolocalization: disappearance of both membrane and cytosolic Notch 3
[11]; after peptide stimulation
  Notch 4 immunolocalization: loss of membrane and cytosolic Notch 4
[11]; keratinocytes in 2 mM calcium, twenty-four hours after addition
  Jagged-1 cellular localization: loss of this plasma membrane staining
[1]; immediately following stimulation
  amount of IKKα present: not accompanied by any significant change
[1]
  kinase activity of IKKα: did activate
[12]
  loricrin and involucrin immunostaining: strong induction
  stratification of keratinocyte monolayer: began piling-up to form 3-dimensional stratified clusters
[2]; 50 μM added on day 0
  terminal differentiation and cornification: triggered terminal differentiation and cornification
[2]; [14]
  apoptosis in submerged epidermal equivalent: reduced the apoptotic process
  loricrin expression in submerged epidermal equivalent: diffuse loricrin expression
  stratum corneum formation in submerged epidermal equivalent: thick stratum corneum layer
[13]; epidermal equivalents, upper layers of differentiated keratinocytes
  PKC-alpha localization: plasma membrane localization for PKC-alpha
[13]; keratinocyte monolayers
  PKC-alpha translocation (PKC activation): induced translocation of PKC-alpha from the cytoplasm to the plasma membrane

## R-JAG: second peptide with agonist activity (SEQ ID NO:12) derived from the same region of Jagged-1, with specific amino acid changes (CDDYYYGFGCNKFGRPRDD; r-JAG1 Notch ligand)
[1]
  kinase activity of IKKα: did activate
[12]
  loricrin and involucrin immunostaining: strong induction
  stratification of keratinocyte monolayer: began piling-up to form 3-dimensional stratified clusters
[2]; 40 μM added on day 0
  terminal differentiation and cornification: triggered terminal differentiation and cornification

Source: US20020151487A1, “Method and reagents for epithelial barrier formation and treatment of malignant and benign skin disorders by modulating the notch pathway” (Loyola University Chicago, priority 2000, published 2002)
